In ChEMBL document CHEMBL1142920, “Second generation of 5-ethenylbenzofuroxan derivatives as inhibitors of Trypanosoma cruzi growth: synthesis, biological evaluation, and structure-activity relationships” (Bioorg Med Chem, 2007):
pIC50: −log10 of the molar value.

Tests used:
Trypanosoma cruzi [1] = test: Antitrypanosomatid activity against Trypanosoma cruzi Tulahuen 2 epimastigotes assessed as reduction of growth after 5 days; type: functional, organism-based; conditions: Tulahuen 2, 120 h
Trypanosoma cruzi [2] = test: Antitrypanosomatid activity against Trypanosoma cruzi Y epimastigotes assessed as reduction of growth after 5 days; type: functional, organism-based; conditions: 120 h
THP-1 = test: Cytotoxicity against human THP1 cells assessed as reduction of cell viability after 48 hrs; type: cell-based; conditions: THP-1, 48 h
Trypanosoma cruzi [3] = test: Antitrypanosomatid activity against Trypanosoma cruzi CL Brener epimastigotes assessed as reduction of growth after 5 days; type: functional, organism-based; conditions: 120 h
[4] = Ratio of IC50 for human THP1 cells to IC50 for Trypanosoma cruzi Tulahuen 2 epimastigotes; type: functional, THP-1
[5] = Ratio of IC50 for human THP1 cells to IC50 for Trypanosoma cruzi CL Brener epimastigotes; type: functional, THP-1
[6] = Ratio of IC50 for human THP1 cells to IC50 for Trypanosoma cruzi Y epimastigotes; type: functional, THP-1

| pIC50 (Trypanosoma cruzi [1]) | pIC50 (Trypanosoma cruzi [2]) | pIC50 (Trypanosoma cruzi [3]) | Compound | pIC50 (THP-1) | Ratio IC50 [4] | Ratio IC50 [5] | Ratio IC50 [6] |
| --- | --- | --- | --- | --- | --- | --- | --- |
| < 4.60 | – | – | N#Cc1ccc(/C=C\c2ccc3c(c2)no[n+]3[O-])cc1 | – | – | – | – |
| 4.82 | 4.62 | – | [O-][n+]1onc2cc(/C=C/c3ccncc3)ccc21 | – | – | – | – |
| – | – | – | [O-][n+]1onc2cc(/C=C\c3ccc(Cl)cc3)ccc21 | 4.01 | – | – | – |
| 5.54 | 5.07 | 5.05 | [O-][n+]1onc2cc(/C=C\c3ccc4c(c3)OCO4)ccc21 | 3.92 | 41.4 | 13.3 | 14.1 |
| 4.80 | 4.66 | 5.36 | CN(C)c1ccc(/C=C/c2ccc3c(c2)no[n+]3[O-])cc1 | < 3.40 | >25 | >90 | >18 |
| < 4.60 | – | – | O=C(O)c1ccc(/C=C\c2ccc3c(c2)no[n+]3[O-])cc1 | – | – | – | – |
| 4.87 | – | – | [O-][n+]1onc2cc(/C=C/C3CCCCC3)ccc21 | – | – | – | – |
| < 4.60 | – | – | COC(=O)/C=C/c1ccc2c(c1)no[n+]2[O-] | – | – | – | – |
| – | 5.00 | 5.35 | [O-][n+]1onc2cc(/C=C/c3ccc(C(F)(F)F)cc3)ccc21 | – | – | – | – |
| 4.99 | 4.60 | 4.65 | [O-][n+]1onc2cc(/C=C/c3ccc(O)cc3)ccc21 | – | – | – | – |
| < 4.60 | – | – | O=C(O)c1ccc(/C=C/c2ccc3c(c2)no[n+]3[O-])cc1 | – | – | – | – |
| – | – | – | [O-][n+]1onc2cc(/C=C/c3ccc(Cl)cc3)ccc21 | < 3.70 | – | – | – |
| < 4.60 | – | – | C=Cc1ccc2c(c1)no[n+]2[O-] | – | – | – | – |
| 5.06 | 5.26 | 5.60 | [O-][n+]1onc2cc(/C=C/c3ccc(Br)cc3)ccc21 | – | – | – | – |
| 4.62 | – | – | CC(=O)Nc1ccc(/C=C\c2ccc3c(c2)no[n+]3[O-])cc1[N+](=O)[O-] | – | – | – | – |
| 5.10 | 5.07 | 5.30 | COc1ccc(/C=C/c2ccc3c(c2)no[n+]3[O-])cc1 | – | – | – | – |
| – | – | – | [O-][n+]1onc2cc(/C=C/c3ccccc3)ccc21 | 3.83 | – | – | – |
| 4.61 | – | 4.86 | O=[N+]([O-])c1ccccc1/C=C\c1ccc2c(c1)no[n+]2[O-] | – | – | – | – |

| pIC50 (Trypanosoma cruzi [1]) | pIC50 (Trypanosoma cruzi [2]) | pIC50 (Trypanosoma cruzi [3]) | Compound | pIC50 (THP-1) | Ratio IC50 [4] | Ratio IC50 [5] | Ratio IC50 [6] |
| --- | --- | --- | --- | --- | --- | --- | --- |
| < 4.60 | < 4.60 | < 4.60 | C(=C\c1ccc2nonc2c1)/c1ccc2c(c1)OCO2 | – | – | – | – |
| – | 4.87 | 4.98 | O=[N+]([O-])c1ccc(/C=C\c2ccc3c(c2)no[n+]3[O-])cc1 | – | – | – | – |
| 4.71 | – | 4.89 | CCCC/C=C/c1ccc2c(c1)no[n+]2[O-] | – | – | – | – |
| < 4.60 | – | – | N#Cc1ccc(/C=C/c2ccc3c(c2)no[n+]3[O-])cc1 | – | – | – | – |
| 5.60 | 5.12 | 5.00 | [O-][n+]1onc2cc(/C=C/c3cccc(F)c3)ccc21 | – | – | – | – |
| < 4.60 | – | < 4.60 | CN(C)c1ccc(/C=C/c2ccc3nonc3c2)cc1 | – | – | – | – |
| 5.22 | 5.35 | 5.46 | O=[N+]([O-])c1ccc(/C=C/c2ccc3c(c2)no[n+]3[O-])s1 | – | – | – | – |
| 6.22 | 4.91 | 4.82 | [O-][n+]1onc2cc(/C=C/c3cccs3)ccc21 | – | – | – | – |
| – | – | – | [O-][n+]1onc2cc(C=Cc3ccc4c(c3)OCO4)ccc21 | 4.09 | – | – | – |
| – | – | – | CC(=O)N1CCN(c2ccc(OCC3COC(Cn4ccnc4)(c4ccc(Cl)cc4Cl)O3)cc2)CC1 (stereo not given) [KETOCONAZOLE] | – | 4.4 | 8.8 | 4.5 |
| – | 5.05 | 5.12 | [O-][n+]1onc2cc(C=Cc3ccc(Cl)cc3)ccc21 | 4.18 | 15.5 | 8.9 | 7.4 |
| 5.28 | 5.14 | 5.05 | [O-][n+]1onc2cc(/C=C/c3ccc4c(c3)OCO4)ccc21 | 3.66 | 41.5 | 24.4 | 30.1 |
| < 4.60 | < 4.60 | < 4.60 | C(=C/c1ccc2nonc2c1)/c1ccc2c(c1)OCO2 | < 3.40 | <40 | <40 | <40 |
| – | – | – | [O-][n+]1onc2cc(/C=C\c3ccccc3)ccc21 | – | 8.9 | 4 | 7 |
| < 4.60 | – | – | [O-][n+]1onc2cc(/C=C\c3ccc4nonc4c3)ccc21 | – | – | – | – |
| – | – | – | CN(C/C=C/C#CC(C)(C)C)Cc1cccc2ccccc12 [TERBINAFINE] | – | – | 7.8 | 7.4 |
| 4.58 | – | 4.95 | O=[N+]([O-])c1ccccc1/C=C/c1ccc2c(c1)no[n+]2[O-] | – | – | – | – |
